Columns and labels:
[1] = In vitro cytotoxicity MTS assay on CRFK cells; assay type: cell-based, feline; conditions: cat, 50% cytotoxic concentration CC50, MTS assay
FIPV [2] = test: microbe, parasite or virus in culture; assay type: cell-based, feline infectious peritonitis virus (FIPV) strain 79-1146; conditions: for EC50: Alphacoronavirus 1, CRFK, 2 h, read-out: Prophylaxis treatment EC50, IPMA; for inhibition of the cytopathic effect (in words): FIPV in CRFK cells, all examined conditions
FIPV [3] = conditions: CRFK cells; CPE still observed; ref Weiss and Oostrom-Ram, 1989; cited from earlier work
CRFK cells = test: In vitro cytotoxicity MTS assay on CRFK cells; assay type: cell-based, feline; conditions: read-out: 50% cytotoxic concentration CC50, MTS assay
FIPV 3CL^pro = FIPV 3CL^pro (Feline coronavirus, UniProt Q98VG9); test: FRET protease inhibition assay, FIPV 3CLpro; assay type: biochemical, feline infectious peritonitis virus (FIPV) strain 79-1146
FIPV [4] = test: FIPV RNA quantification by RT-qPCR in CRFK cells; assay type: cell-based, feline infectious peritonitis virus (FIPV) strain 79-1146; conditions: with higher concentration
TGEV = test: Antiviral activity against TGEV replication in SK6 cells

FIPV 3CL^pro, sequence (Q98VG9 2904-3205 limits assumed): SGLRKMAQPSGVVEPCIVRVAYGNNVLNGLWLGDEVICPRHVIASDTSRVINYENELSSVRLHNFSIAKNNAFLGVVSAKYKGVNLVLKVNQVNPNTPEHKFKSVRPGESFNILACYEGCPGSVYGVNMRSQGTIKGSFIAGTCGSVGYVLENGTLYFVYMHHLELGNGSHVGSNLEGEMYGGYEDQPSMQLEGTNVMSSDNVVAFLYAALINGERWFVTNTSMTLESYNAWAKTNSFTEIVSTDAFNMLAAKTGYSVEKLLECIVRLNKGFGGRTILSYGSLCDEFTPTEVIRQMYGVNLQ

## NC(=O)c1ncn([C@@H]2O[C@H](CO)[C@@H](O)[C@H]2O)n1 [Ribavirin, reference compound]
[1]
  CC50: > 500 µM
FIPV [2]
  EC50: > 200 µM
FIPV [3]
  Inhibitory dose for FIPV: 50 to 100 µg/mL

## CC(C)C[C@H](NC(=O)OCc1ccccc1)C(=O)N[C@@H](CC1CCNC1=O)C(O)S(=O)(=O)O (stereo partly drawn) [GC376, reference compound]
CRFK cells
  CC50: > 200 µM

## Cc1cccc(C)c1OCC(=O)N[C@@H](Cc1ccccc1)[C@@H](O)C[C@H](Cc1ccccc1)NC(=O)[C@H](C(C)C)N1CCCNC1=O [Lopinavir, reference compound]
[1]
  CC50: > 100 µM
FIPV [2]
  EC50: 33.7 ± 1.53 µM

## O=C(C=Cc1ccc2ccccc2n1)c1cc(Cl)ccc1O [NSC71097, 1-(5-chloro-2-hydroxyphenyl)-3-(2-quinolinyl)-2-propen-1-one]
FIPV 3CL^pro
  Ki: 15.2 ± 1.76 µM
[1]
  CC50: 68.5 ± 4.82 µM
FIPV [2]
  EC50: 1.99 ± 0.3 µM
  inhibition of the cytopathic effect (in words): strongly inhibit
FIPV [4]
  copy numbers of FIPV RNAs / FIPV replication (RT-qPCR): reduced replication

## N#CC1(C#N)C2C=CC(c3coc4cccc2c34)C1(C#N)C#N (stereo not drawn) [NSC629301, 3,6-dihydro-3,6-ethanocyclohepta (cd) (1) benzofuran-10,10,11,11-tetracarbonitrile]
FIPV 3CL^pro
  Ki: 9.39 ± 0.53 µM
[1]
  CC50: 28.1 ± 5.19 µM
CRFK cells
  CC50: 23.2 ± 5.19 µM
FIPV [2]
  EC50: 6.11 ± 1.9 µM
  inhibition of the cytopathic effect (in words): strongly inhibit
FIPV [4]
  copy numbers of FIPV RNAs / FIPV replication (RT-qPCR): reduced replication

## O=C(Nc1ccc(F)cc1)Oc1ccc[nH]c1=O [NSC282187, Carbamic acid, (4-fluorophenyl)-, 1,2-dihydro-2-oxo-3-pyridinyl ester]
FIPV 3CL^pro
  Ki: 2.04 ± 0.08 µM
[1]
  CC50: 510.7 ± 0.13 µM
FIPV [2]
  EC50: > 200 µM
TGEV
  antiviral effect in TGEV cell-based assay (in words): did not show an active antiviral effect
